Experimental data from patent US20240376120A1, “CAMPTOTHECIN COMPOUND, PREPARATION METHOD THEREFOR AND USE THEREOF” (priority 2021, published 2024).
Counter-ions that a name gives are not always drawn. Like-named read-outs stand apart in the source and are kept apart here.

Tests used:
[1] = test system: MCF-7 cells (human breast cancer cells); experiment: MCF-7 cell proliferation inhibitory assay (CellTiter-Glo); type: cell-based
Procedure: • 1). […] Resuspend an appropriate amount of cell suspension to 4000 cells/100 μL according to the count, mixed well and then put the corresponding number of cells into a 96-well plate by pipette. • 3). Each hole of the edge was sealed with 100 μL DPBS and put into an incubator for culture. • 4). Day 1 drug addition: Prepare the storage solution of the compound to be tested 1 hour in advance. 24 h after plating, the culture medium was gradiently diluted to a concentration twice the final concentration of each group. Take out the plated cells from the incubator and add 100 μL of the corresponding 2-fold concentration medium to each well by pipette.
Day 1 detected: Take out the plate to be tested and an appropriate amount of CTG in advance and rewarm it at room temperature in the dark. 50 μL of CTG was added to each well at 24 h. Shake with the oscillator for 5 minutes, and after balancing in the dark for 5 minutes, detect the luminescence value with a microplate reader; The mixture was shaken for 5 min, and after equilibration in the dark for 5 min, the luminescence value was detected with ELISA. • 6). Day 4 detection: Take an appropriate amount of CTG 1 h in advance and rewarm it at room temperature in the dark. At the same time, take out the plate to be tested from the incubator and leave it to equilibrate at room temperature for 30 minutes; 72 h after adding the drug, 100 μL of culture medium was sucked out with pipette carefully from each cell well, and 50 μL of CTG was added. The mixture was shaken for 5 min, and after equilibration in the dark for 5 min, the luminescence value was detected with ELISA analyzer. • 7). Data analysis and processed.
Collect data and convert it into survival rate: Inhibition rate (%)=(100−(OD value of compound-OD value on the first day)/(OD value of control well-OD value on the first day))×100%
(§1) Input the compound into graphpad prism to obtain the corresponding IC50 value.

[2] = test system: MDA-MB-231 cells (human breast cancer cells); experiment: MDA-MB-231 cell proliferation inhibitory assay (CellTiter-Glo); type: cell-based
Procedure: (§2) • 1). […] Resuspend an appropriate amount of cell suspension to 3000 cells/100 μL according to the count, mixed well and then put the corresponding number of cells into a 96-well plate by pipette. • 3). Each hole of the edge was sealed with 100 μL DPBS and put into an incubator for culture. • 4). Day 1 drug addition: Prepare the storage solution of the compound to be tested 1 hour in advance. 24 h after plating, the culture medium was gradiently diluted to a concentration twice the final concentration of each group. Take out the plated cells from the incubator and add 100 μL of the corresponding 2-fold concentration medium to each well by pipette. • 5). Day 1 detected: Take out an appropriate amount of CTG 1 h in advance and the plate was allowed to equilibrate at room temperature for 30 min. 100 μL of CTG was added to each well and shaken for 5 mins, and then standed in the dark for 5 mins, the luminescence value was detected by ELISA. • 6). Day 4 detection: Take an appropriate amount of CTG 1 h in advance and rewarm it at room temperature in the dark. At the same time, take out the plate to be tested from the incubator and leave it to equilibrate at room temperature for 30 minutes; 72 h after adding the drug, 100 μL of culture medium was sucked out with pipette carefully from each cell well, and 100 μL of CTG was added. The mixture was shaken for 5 min, and after equilibration in the dark for 5 min, the luminescence value was detected with ELISA. • 7). Analyze data and write detailed experimental records.
as §1

[3] = test system: MDA-MB-435s cells (human melanoma cells); experiment: MDA-MB-435s cell proliferation inhibitory assay (CellTiter-Glo); type: cell-based
Procedure: as §2
Collect data and convert it into survival rate: Inhibition rate (%)=(100−(OD value of compound−OD value on the first day)/(OD value of control well-OD value on the first day))×100%
as §1

[4] = Caco-2 cell membrane permeability assay; settings: human, Caco-2
Procedure: (§3) Day 0 plated: After digesting the target cells in the logarithmic growth phase, make a single cell suspension and count. • 2). Took out the corresponding number of transwell chambers and placed them in a 24-well plate, added 200 μL PBS to the upper chamber, incubated for 10 mins, and removed the PBS from the upper chamber by pipette. • 3). According to the count, took an appropriate amount of cell suspension and resuspended it to 5000 cells/200 μL, mixed well and added it to the upper chamber of the transwell, and added 600 μL of complete culture medium to the lower chamber. • 4). medium exchanged on DAY1: The upper chamber and the lower chamber were exchanged with complete culture medium containing 0.1 mg/mL ascorbic acid for 9 days continuously, and the resistance value of membrane expansion was measured. […] Collected the liquid in the upper chamber and the lower chamber for detection. • 7). Calculated Papp according to the formula “Papp=dQ/(dt×A×C0)”. dQ/dt was the transport amount of drugs per unit time, which was the slope of the linear regression of cumulative drug release amount Q versus time t. A was the bottom area of the Transwell orifice plate membrane, and the bottom area was 0.33 cm^2 of 24-well plate in this experiment. Co was the initial concentration of drugs in the upper chamber (μg mL-1).

[5] = in vitro; settings: human, Caco-2
Procedure: as §3

[6] = test system: Caco-2 cells (human colorectal adenocarcinoma cells); experiment: Caco-2 cell membrane permeability assay; settings: Caco-2 monolayer, apical to basolateral, 100 μg/mL, 180 min
Procedure: as §3

[7] = test system: Caco-2 cells (human colorectal adenocarcinoma cells)
Procedure: as §3

[8] = Homo sapiens, MCF7, 72 h, read-out: Proliferation inhibition IC50
[9] = Homo sapiens, MDA-MB-231, 72 h, read-out: Proliferation inhibition IC50
[10] = Homo sapiens, MDA-MB-435S, 72 h, read-out: Proliferation inhibition IC50
[11] = Homo sapiens, MCF7, MCF-7 cells, 72 h after adding the drug, Table 1, read-out: Proliferation inhibition IC50
[12] = Homo sapiens, MCF7, read-out: MCF-7 Proliferation inhibition IC50
[13] = Homo sapiens, MDA-MB-231, read-out: MDA-MB-231 Proliferation inhibition IC50
[14] = Homo sapiens, MDA-MB-435S, read-out: MDA-MB-435s Proliferation inhibition IC50

Compound	IC50 [1, 8]	IC50 [2, 9]	IC50 [3, 10]	other results
CC[C@@]1(O)C(=O)OCc2c1cc1n(c2=O)Cc2c-1nc1cc(F)c(C)c3c1c2[C@@H](N)CC3 [Compound B, Exatecan, reference compound]	5.5 nM	30.9 nM	2.52 nM	Papp A→B at 180 min, 100 μg/mL [4]: 68.6 ×10⁻⁶ cm/s
CC[C@@]1(O)C(=O)OCc2c1cc1n(c2=O)Cc2c-1nc1cc(F)c(C)cc1c2CN [Compound A, reference compound]				IC50 [1, 11]: 15.3 nM; IC50 ([1]; Homo sapiens, MCF7, MCF-7 cells, comparative Table 4, read-out: MCF-7 Proliferation inhibition IC50): 15.3 nM; IC50 ([2]; Homo sapiens, MDA-MB-231 cells, 72 h after adding the drug, Table 2, read-out: Proliferation inhibition IC50): 260 nM; IC50 ([2]; Homo sapiens, MDA-MB-231 cells, comparative Table 4, read-out: MDA-MB-231 Proliferation inhibition IC50): 260 nM; IC50 ([3]; Homo sapiens, MDA-MB-435s cells, 72 h after adding the drug, Table 3, read-out: Proliferation inhibition IC50): 21.4 nM; IC50 ([3]; Homo sapiens, MDA-MB-435s cells, comparative Table 4, read-out: MDA-MB-435s Proliferation inhibition IC50): 21.4 nM; Papp A→B at 180 min, 100 μg/mL [5]: 68.8 ×10⁻⁶ cm/s
CC[C@@]1(O)C(=O)OCc2c1cc1n(c2=O)Cc2c-1nc1cc(F)c(C)c3c1c2[C@@H](NC(=O)CO)CC3 [Dxd, reference compound]	20.3 nM	101 nM	5.12 nM	Papp A→B at 180 min, 100 μg/mL [4]: 42 ×10⁻⁶ cm/s
CC[C@@]1(O)C(=O)OCc2c1cc1n(c2=O)Cc2c-1nc1cc(F)c(C)cc1c2CO [Example 12b]	16.5 nM	20.2 nM	3.2 nM	IC50 [1, 12]: 16.5 nM; IC50 [2, 13]: 20.2 nM; IC50 [3, 14]: 3.2 nM; Papp A→B at 180 min, 100 μg/mL [5]: 49.3 ×10⁻⁶ cm/s
CC[C@@]1(O)C(=O)OCc2c1cc1n(c2=O)Cc2c-1nc1cc(F)c(C)cc1c2[C@@H](C)NC(=O)CO [Example 13b]		130 nM	3.9 nM	IC50 [1, 11]: 25.6 nM; Papp A→B at 180 min, 100 μg/mL [5]: 56.1 ×10⁻⁶ cm/s
CCc1c2c(nc3ccc(O)cc13)-c1cc3c(c(=O)n1C2)COC(=O)[C@]3(O)CC [SN38, reference compound]				IC50 ([1]; MCF-7 cells, 72 h after adding the drug, Table 1, read-out: Proliferation inhibition IC50): 22.5 nM; IC50 ([2]; MDA-MB-231 cells, 72 h after adding the drug, Table 2, read-out: Proliferation inhibition IC50): 124 nM; IC50 ([3]; MDA-MB-435s cells, 72 h after adding the drug, Table 3, read-out: Proliferation inhibition IC50): 6.89 nM; Permeability Coefficient (Papp 10^−6 cm/s) A→B [6]: 46.8 10^−6 cm/s
CC[C@@]1(O)C(=O)OCc2c1cc1n(c2=O)Cc2c-1nc1cc(F)c(C)cc1c2[C@H](C)O [Example 12c]	3.5 nM	6.6 nM	0.7 nM	Permeability compared with reference compounds (in words) [7]: obvious advantages over SN38 and exatecan; Papp A→B at 180 min, 100 μg/mL [5]: 96 ×10⁻⁶ cm/s
CC[C@@]1(O)C(=O)OCc2c1cc1n(c2=O)Cc2c-1nc1cc(F)c(C)cc1c2[C@H](C)NC [Example 21]	4.2 nM	20.2 nM	1.2 nM	
CC[C@@]1(O)C(=O)OCc2c1cc1n(c2=O)Cc2c-1nc1cc(F)c(C)cc1c2[C@@H]1CCCN1 [Example 8]	10.3 nM	210 nM	35.2 nM	
CC[C@@]1(O)C(=O)OCc2c1cc1n(c2=O)Cc2c-1nc1ccc(OC)cc1c2[C@H](C)O [Example 31c]	10.2 nM	18.3 nM	5.8 nM	
CC[C@@]1(O)C(=O)OCc2c1cc1n(c2=O)Cc2c-1nc1cc(F)c(C)cc1c2[C@H](N)CO [Example 39b]	4.6 nM	9.1 nM	1.65 nM	
CC[C@@]1(O)C(=O)OCc2c1cc1n(c2=O)Cc2c-1nc1ccc(C(F)F)cc1c2[C@H](C)N [Example 32a]	7.5 nM	16.7 nM	3.37 nM	
CC[C@@]1(O)C(=O)OCc2c1cc1n(c2=O)Cc2c-1nc1cc3c(cc1c2[C@H](C)N)OCO3 [Example 35a]	10.3 nM	20.6 nM	3.33 nM	
[2H]C([2H])(O)C(=O)N[C@@H](C)c1c2c(nc3cc(F)c(C)cc13)-c1cc3c(c(=O)n1C2)COC(=O)[C@]3(O)CC [Example 20]	7.8 nM	120 nM	2.7 nM	
COCCc1ccc(OCC(O)CNC(C)C)cc1 (centres unmarked) [Metoprolol Tartrate]				Papp A→B at 180 min, 100 μg/mL [4]: 193 ×10⁻⁶ cm/s
CC[C@@]1(O)C(=O)OCc2c1cc1n(c2=O)Cc2c-1nc1cc(F)c(C)cc1c2[C@H](C)NC(=O)[C@@H](O)C1CC1 [Example 17]	7.8 nM	96.7 nM	6.3 nM	
CC[C@@]1(O)C(=O)OCc2c1cc1n(c2=O)Cc2c-1nc1cc(F)c(C)cc1c2[C@H](C)NC(C)=O [Compound 1f-2]	11.6 nM	74.2 nM	3.5 nM	
CC[C@@]1(O)C(=O)OCc2c1cc1n(c2=O)Cc2c-1nc1cc(F)c(C)cc1c2[C@@H](C)N [Example 1]	5.2 nM	8.2 nM	0.75 nM	IC50 [1, 12]: 5.2 nM; IC50 [2, 13]: 8.2 nM; IC50 [3, 14]: 0.75 nM; Permeability compared with reference compounds (in words) [7]: obvious advantages over SN38 and exatecan; Papp A→B at 180 min, 100 μg/mL [5]: 100 ×10⁻⁶ cm/s
CC[C@@]1(O)C(=O)OCc2c1cc1n(c2=O)Cc2c-1nc1ccc(OC)cc1c2[C@@H](C)N [Example 31b]	4.1 nM	9.2 nM	1 nM	
